Read-outs that look alike come from different tables or passages of the source.
Assays:
[1] = system: PC-9 cells (EGFR Ex19Del); assay: Potency Assay: pERK (SOS1 pERK IC50 Assay, AlphaLISA SureFire Ultra p-ERK1/2); type: cell-based; settings: Homo sapiens, read-out: SOS1 pERK IC50
Description: The purpose of this assay is to measure the ability of test compounds to inhibit SOS1 function in cells. SOS1 activates RAS proteins by catalyzing the conversion of RAS GDP to RAS GTP in response to receptor tyrosine kinase activation. […] The procedure described below measures the level of cellular pERK in response to test compounds in PC-9 cells (EGFR Ex19Del).
PC-9 cells were grown and maintained using media and procedures recommended by the ATCC. On the day prior to compound addition, cells were plated in 384-well cell culture plates (40 μL/well) and grown overnight in a 37° C., 5% CO2 incubator. Test compounds were prepared in 10, 3-fold dilutions in DMSO, with a top concentration of 10 mM. On the day of the assay, 40 nL of test compound was added to each well of cell culture plate using an Echo550 liquid handler (LabCyte). Concentrations of test compound were tested in duplicate with highest test concentration being 10 μM. After compound addition, cells were incubated for 1 hour at 37° C., 5% CO2. Following incubation, culture medium was removed and cells were washed once with phosphate buffered saline.
Cellular pERK level was determined using the AlphaLISA SureFire Ultra p-ERK1/2 Assay Kit (PerkinElmer). Cells were lysed in 25 μL lysis buffer, with shaking at 600 RPM at room temperature for 15 minutes. Lysate (10 μL) was transferred to a 384-well Opti-plate (PerkinElmer) and 5 μL acceptor mix was added. The plate was centrifuged at 1000 RPM for 1 minute, and incubated in the dark for 2 hours. Following this incubation, 5 μL of donor mix was added, the plate was sealed and centrifuged at 1000 RPM for 1 minute, and the mixture was incubated for 2 hours at room temperature. Signal was read on an Envision plate reader (PerkinElmer) using standard AlphaLISA settings. Analysis of raw data was carried out in Excel (Microsoft) and Prism (GraphPad). Signal was plotted vs. the decadal logarithm of compound concentration, and IC50 was determined by fitting a 4-parameter sigmoidal concentration response model.

[2] = molecular target: T1, SOS1 catalytic domain (residues 564-1049) (Homo sapiens, UniProt Q07889); assay: Mode of Action Assay: inhibition of SOS1 nucleotide exchange activity (SOS1 TR-FRET IC50 Assay)
T1 sequence (Q07889 564-1049): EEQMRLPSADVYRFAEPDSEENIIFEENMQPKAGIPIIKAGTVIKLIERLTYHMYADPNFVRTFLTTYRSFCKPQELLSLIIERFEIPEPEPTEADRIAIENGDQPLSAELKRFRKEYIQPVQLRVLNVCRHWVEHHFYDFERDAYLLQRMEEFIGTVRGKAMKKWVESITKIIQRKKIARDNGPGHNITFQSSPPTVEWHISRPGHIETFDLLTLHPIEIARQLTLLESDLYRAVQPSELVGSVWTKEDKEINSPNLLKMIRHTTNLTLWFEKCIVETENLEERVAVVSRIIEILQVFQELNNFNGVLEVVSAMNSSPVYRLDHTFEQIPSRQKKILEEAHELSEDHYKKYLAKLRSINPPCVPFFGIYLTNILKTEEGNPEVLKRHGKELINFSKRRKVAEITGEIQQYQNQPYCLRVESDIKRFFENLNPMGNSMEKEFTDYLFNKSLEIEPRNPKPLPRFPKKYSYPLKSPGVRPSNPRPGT

[3] = PC-9 cells (EGFR Ex19Del), 1 hour incubation, AlphaLISA p-ERK1/2

Structure (SMILES)	IC50 [1, 3]	IC50 [2]	IC50 ([1]; PC-9, 1 h)
C[C@@H](Nc1nc(Cl)nc2c1CN(C(=O)[C@H]1[C@@H]3CNC[C@@H]31)C2)c1cc(N)cc(C(F)(F)F)c1 [Example 269]	> 1 µM	< 1 µM	–
C[C@@H](Nc1nc(Cl)nc2c1CN(C(=O)C1(CO)CC1)CC2)c1cc(N)cc(C(F)(F)F)c1 [Example 206]	> 1 µM	> 1 µM	–
COCC1(C(=O)N2CCc3nc(Cl)nc(N[C@H](C)c4cc(N)cc(C(F)(F)F)c4)c3C2)CC1 [Example 213]	> 1 µM	> 1 µM	–
CC(Nc1nc(Cl)nc2c1CN(C(=O)N1CCOCC1)C2)c1cccc(C2(F)CNC2)c1 (stereo not drawn) [Example 517, [2-chloro-4-[1-[3-(3-fluoroazetidin-3-yl)phenyl]ethylamino]-5,7-dihydropyrrolo[3,4-d]pyrimidin-6-yl]-morpholino-methanone]	–	< 1 µM	> 1 µM
C[C@@H](Nc1nc(Cl)nc2c1CN(C(=O)c1cc(N3CCOCC3)nc(N3CCOCC3)n1)CC2)c1cc(N)cc(C(F)(F)F)c1 [Example 230]	> 1 µM	> 1 µM	–
C[C@@H](Nc1nc(CNC2COC2)nc2c1CN(C(=O)N1CCOCC1)C2)c1cccc(C(F)F)c1F [Example 509, N-[(1R)-1-[3-(difluoromethyl)-2-fluorophenyl]ethyl]-6-(morpholine-4-carbonyl)-2-{[(oxetan-3-yl)amino]methyl}-5H,6H,7H-pyrrolo-[3,4-d]pyrimidin-4-amine]	> 1 µM	< 1 µM	–
Cc1nc2c(c(N[C@H](C)c3cc(N)cc(C(F)(F)F)c3)n1)CN(CC1CCOC1)C2 (stereo partly drawn) [Example 111, N-[(1R)-1-[3-amino-5-(trifluoromethyl)phenyl]ethyl]-2-methyl-6-(tetrahydrofuran-3-ylmethyl)-5,7-dihydropyrrolo[3,4-d]pyrimidin-4-amine]	> 1 µM	> 1 µM	–
C[C@@H](Nc1nc(Cl)nc2c1CN(C(=O)N1CCOc3cccnc31)C2)c1cccc(C(F)(F)F)c1 [Example 368]	< 1 µM	< 1 µM	–
Cc1nc2c(c(N[C@H](C)c3cc(N)cc(C(F)(F)F)c3)n1)CCN(C(=O)N1CCOCC1)CC2 [Example 112, N-[(1R)-1-[3-amino-5-(trifluoromethyl)phenyl]ethyl]-2-methyl-7-(morpholine-4-carbonyl)-5H,6H,7H,8H,9H-pyrimido[4,5-d]-azepin-4-amine]	> 1 µM	> 1 µM	–
Cc1nc2c(c(N[C@H](C)c3cc(N)cc(C(F)(F)F)c3)n1)CN(CC1CCOC1)CC2 (stereo partly drawn) [Example 56, N-[(1R)-1-[3-amino-5-(trifluoromethyl)phenyl]ethyl]-2-methyl-6-(tetrahydrofuran-3-ylmethyl)-7,8-dihydro-5H-pyrido[4,3-d]pyrimidin-4-amine]	> 1 µM	< 1 µM	–
C[C@@H](Nc1nc(Cl)nc2c1CN(C(=O)C1CCN(C)CC1)C2)c1cc(N)cc(C(F)(F)F)c1 [Example 58, [4-[[(1R)-1-[3-amino-5-(trifluoromethyl)phenyl]ethyl]amino]-2-chloro-5,7-dihydropyrrolo[3,4-d]pyrimidin-6-yl]-(1-methyl-4-piperidyl)methanone]	–	< 1 µM	< 1 µM
C[C@@H](Nc1nc(Cl)nc2c1CN(C(=O)C1CCCN1c1ncccn1)CC2)c1cc(N)cc(C(F)(F)F)c1 (stereo partly drawn) [Example 200]	> 1 µM	> 1 µM	–
C[C@@H](Nc1nc(Cl)nc2c1CN(C(=O)N1CCOCC1)C2)c1ccc2cc[nH]c2c1 [Example 495]	> 1 µM	> 1 µM	–
Cc1nc2c(c(N[C@H](C)c3cc(N)cc(C(F)(F)F)c3)n1)CN(S(=O)(=O)N1CCN(C)CC1)C2 [Example 38, (R)—N-(1-(3-amino-5-(trifluoromethyl)phenyl)ethyl)-2-methyl-6-((4-methylpiperazin-1-yl)sulfonyl)-6,7-dihydro-5H-pyrrolo[3,4-d]pyrimidin-4-amine]	< 1 µM	< 1 µM	–
COCC(F)(F)c1cccc([C@@H](C)Nc2nc(Cl)nc3c2CN(C(=O)C2(OC)CCOCC2)C3)c1 [Example 536, [2-chloro-4-[[(1R)-1-[3-(1,1-difluoro-2-methoxy-ethyl)phenyl]ethyl]amino]-5,7-dihydropyrrolo[3,4-d]pyrimidin-6-yl]-(4-methoxytetrahydropyran-4-yl)methanone]	< 1 µM	< 1 µM	–
CC(Nc1nc(Cl)nc2c1CN(C(=O)N1CCOCC1)C2)c1cccc(C2CC2)c1 (stereo not drawn) [Example 534, [2-chloro-4-[1-(3-cyclopropylphenyl)ethylamino]-5,7-dihydropyrrolo[3,4-d]pyrimidin-6-yl]-morpholino-methanone]	–	> 1 µM	> 1 µM
COC1(C(=O)N2CCc3nc(Cl)nc(N[C@H](C)c4cc(N)cc(C(F)(F)F)c4)c3C2)CC1 [Example 201]	> 1 µM	> 1 µM	–
C[C@@H](Nc1nc(Cl)nc2c1CN(C(=O)c1ccc3c(n1)OCCO3)CC2)c1cc(N)cc(C(F)(F)F)c1 [Example 249]	> 1 µM	> 1 µM	–
C[C@@H](Nc1nc(Cl)nc2c1CN(C(=O)N1CCc3ncccc31)C2)c1cccc(C(F)(F)F)c1 [Example 371]	< 1 µM	< 1 µM	–
C[C@@H](Nc1nc(Cl)nc2c1CN(C(=O)C1(O)CCOCC1)CC2)c1cc(N)cc(C(F)(F)F)c1 [Example 189]	> 1 µM	> 1 µM	–
C[C@@H](Nc1nc(Cl)nc2c1CN(C(=O)N1CCOCC1)C2)c1csc(C(F)F)c1F [Example 481, 2-chloro-N-[(1R)-1-[5-(difluoromethyl)-4-fluorothiophen-3-yl]ethyl]-6-(morpholine-4-carbonyl)-5H,6H,7H-pyrrolo[3,4-d]pyrimidin-4-amine]	–	> 1 µM	> 1 µM
C[C@@H](Nc1nc(Cl)nc2c1CN(C(=O)N1CCNc3ccccc31)C2)c1cccc(C(F)(F)F)c1 [Example 372]	< 1 µM	< 1 µM	–
C[C@@H](Nc1nc(Cl)nc2c1CN(C(=O)N1CCOCC1)C2)c1cccc(C(F)(F)OC2CC2)c1 [Example 524, 2-chloro-N-[(1R)-1-[3-(cyclopropoxydifluoromethyl)phenyl]ethyl]-6-(morpholine-4-carbonyl)-5H,6H,7H-pyrrolo[3,4-d]pyrimidin-4-amine]	> 1 µM	< 1 µM	–
CC(Nc1nc(Cl)nc2c1CN(C(=O)N1CCOCC1)C2)c1cccc(C(F)(F)F)c1Cl (stereo not drawn) [Example 498]	< 1 µM	> 1 µM	–
C[C@@H](Nc1nc(Cl)nc2c1CN(C(=O)C13COC(CCO1)C3)CC2)c1cc(N)cc(C(F)(F)F)c1 (stereo partly drawn) [Example 220]	> 1 µM	> 1 µM	–
C[C@@H](Nc1nc(Cl)nc2c1C[C@H](N1CCOCC1)CC2)c1cccc(C(F)F)c1F [Example 441]	> 1 µM	< 1 µM	–
Cc1c(C(C)Nc2nc(Cl)nc3c2CN(C(=O)N2CCOCC2)C3)cccc1C(F)(F)F (stereo not drawn) [Example 499]	< 1 µM	> 1 µM	–
COC1(C(=O)N2Cc3nc(Cl)nc(N[C@H](C)c4cccc(C(F)(F)CO)c4)c3C2)CN(C2COC2)C1 [Example 267]	< 1 µM	< 1 µM	–
C[C@@H](Nc1ncnc2c1CC(N1CCOCC1)C(=O)N2C)c1cc(N)cc(C(F)(F)F)c1 (stereo partly drawn) [Example 502, 4-{[(1R)-1-[3-amino-5-(trifluoromethyl)phenyl]ethyl]amino}-8-methyl-6-(morpholin-4-yl)-5H,6H,7H,8H-pyrido[2,3-d]pyrimidin-7-one]	> 1 µM	< 1 µM	–
C[C@@H](Nc1nc(Cl)nc2c1CN(C(=O)N1CCOCC1)C2)c1cncc(C(F)(F)F)c1 [Example 480, 2-chloro-6-(morpholine-4-carbonyl)-N-[(1R)-1-[5-(trifluoromethyl)pyridin-3-yl]ethyl]-5H,6H,7H-pyrrolo[3,4-d]pyrimidin-4-amine]	> 1 µM	> 1 µM	–
